Laboratory results reported in patent US8394786B2, “Quinazoline derivatives” (Janssen Pharmaceutica N.V., priority 2003, dated 2013).

Key:
SKOV3 cells = experiment: Serum starved proliferation assay on the ovarian carcinoma SKOV3 cells (C3); format: cell-based; details: Homo sapiens, SK-OV-3, 72 h, EGF stimulated (100 ng/ml, 72 hours, serum free) or 72 hours with compounds; MTT cell viability assay; read-out: SKOV3 cell (C3): pIC50 (converted)
Method in brief: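 SKOV3 cells grown 24 h in 10% FCS, then treated with compound under serum-free conditions (37 °C, 5% CO2) and stimulated 72 h with EGF at 100 ng/ml final; read-out by MTT viability. Alternative format: compound for 72 h after the same 24 h FCS step, also by MTT.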

EGFR [1] = target: T1, EGFR (Homo sapiens, UniProt P00533); experiment: ELISA assay of EGFR tyrosine kinase activity (C4); format: biochemical; details: poly(Glu, Tyr) coated plate, 5 μM ATP, room temperature 10 min
Protocol: The EGFR ELISA is generally described by Yang, E. B. et al., 2001, Biochimica et Biophysica Acta, 1550; 144.
For the determination of EGFR tyrosine kinase activity, 100 μl of 0.4 μg/ml poly(Glu, Tyr) in PBS was coated per well on a 96-well microplate at 37° C. overnight. […] After washing three times with PBS the plates were either used immediately or stored at 4° C. Prior to the determination of the EGFR tyrosine kinase activity, the coated plates were washed two times with PBS. Next, to each well 88 μl of an ATP dilution (50 mM Tris HCl pH 8.0, 10 mM MgCl2, 100 μM Na3VO4, 1 mM DTT, 5 μM ATP) and 2 μl with various concentrations of the compounds to be tested, were added. The EGFR tyrosine kinase-catalysed reaction was started by the addition of 10 μl of diluted EGFR (dilution→0.05 μg per well enzyme diluted in 50 mM TrisHCl pH 8.0+0.1% BSA). After incubation at room temperature for 10 min, the reaction was stopped by washing five times with PBS with 0.1% Tween 20. Subsequently […] of recombinant anti-phosphotyrosine horseradish peroxidase conjugate (1:2500) in BSA (10 mg/ml in PBS) was added. After incubation at room temperature for 1 h, the microplate was washed five times with PBS/Tween 20. After the microplate was incubated with 100 μl of TMB-ELISA (1-step Ultra TMB-ELISA, Pierce) until colour development, 100 μl of 0.5 M H2SO4 was added to stop the reaction, and it was read in a microplate reader at 450-655 nm.
Target sequence in this assay (P00533 25-1210): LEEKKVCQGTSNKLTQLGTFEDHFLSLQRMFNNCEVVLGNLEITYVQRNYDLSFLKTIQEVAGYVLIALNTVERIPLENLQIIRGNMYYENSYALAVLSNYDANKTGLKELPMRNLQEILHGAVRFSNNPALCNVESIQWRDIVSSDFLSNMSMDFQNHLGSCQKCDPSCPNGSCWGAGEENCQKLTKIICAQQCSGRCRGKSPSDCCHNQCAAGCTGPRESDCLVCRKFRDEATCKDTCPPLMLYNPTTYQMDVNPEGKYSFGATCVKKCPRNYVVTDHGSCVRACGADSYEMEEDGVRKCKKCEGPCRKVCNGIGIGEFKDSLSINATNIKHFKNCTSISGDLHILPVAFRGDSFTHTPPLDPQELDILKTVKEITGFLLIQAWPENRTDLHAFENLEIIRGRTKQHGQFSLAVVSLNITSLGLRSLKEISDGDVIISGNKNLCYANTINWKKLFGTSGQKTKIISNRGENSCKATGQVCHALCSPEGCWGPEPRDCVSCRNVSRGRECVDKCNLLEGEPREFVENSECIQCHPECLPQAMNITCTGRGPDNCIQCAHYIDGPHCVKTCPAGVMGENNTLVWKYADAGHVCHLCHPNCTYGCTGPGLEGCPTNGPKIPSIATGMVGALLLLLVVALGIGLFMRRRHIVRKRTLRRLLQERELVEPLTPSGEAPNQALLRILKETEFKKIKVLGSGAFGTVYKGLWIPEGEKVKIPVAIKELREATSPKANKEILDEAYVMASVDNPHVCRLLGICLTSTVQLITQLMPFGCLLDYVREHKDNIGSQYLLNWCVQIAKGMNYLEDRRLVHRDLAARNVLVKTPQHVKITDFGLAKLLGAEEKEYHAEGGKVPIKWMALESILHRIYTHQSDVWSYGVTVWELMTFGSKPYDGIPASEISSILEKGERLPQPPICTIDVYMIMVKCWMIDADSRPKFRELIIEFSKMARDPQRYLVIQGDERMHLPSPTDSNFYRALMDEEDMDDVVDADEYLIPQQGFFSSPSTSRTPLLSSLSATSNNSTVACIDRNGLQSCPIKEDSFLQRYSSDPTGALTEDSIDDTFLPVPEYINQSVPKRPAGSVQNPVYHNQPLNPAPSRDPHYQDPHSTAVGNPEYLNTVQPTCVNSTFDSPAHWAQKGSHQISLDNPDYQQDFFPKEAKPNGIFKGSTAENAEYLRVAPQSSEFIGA

A431 cells = experiment: Proliferation assay on the squamous carcinoma cell line A431 cells (C5); format: cell-based; details: Homo sapiens, A-431; 72 hours with compounds; MTT cell viability assay; read-out: A431 cell (C5): pIC50 (converted)
Protocol: The squamous carcinoma cell line (A431) was used in a cell proliferation assay, to assess the inhibitory effect of the compounds in whole cells.
In a first step the A431 cells were incubated for 24 hours in the presence of 10% FCS serum. In the second step the cells were incubated for 72 hours with the compounds to be tested at a final concentration of 100 ng/ml. The effect of the compounds on the cell proliferation was finally assessed in a standard MTT cell viability assay.

EGFR [2] = target: T1, EGFR; experiment: In vitro inhibition of EGFR using a scintillant proximity assay (C1); format: biochemical; parameters: 0.5 μg EGFR-kinase domain/well; details: EGFR-kinase domain, poly(GT)biotin, 5.0 μM unlabeled ATP, 30° C. 60 minutes; read-out: EGFR SPA (C1): IC50
Protocol: In the present EGFR SPA kinase reaction assay, a kinase substrate consisting of biotinylated poly(L-glutamic acid-L-tyrosine) (poly(GT)biotin), is incubated with the aforementioned protein in the presence of (^33P) radiolabeled ATP. (^33P) phosphorylation of the substrate is subsequently measured as light energy emitted using streptavidin-coated SPA beads (Amersham Pharmacia Biotech) by trapping and quantifying the binding of the biotin tagged and radiolabeled substrate.
The EGFR SPA kinase reaction is performed at 30° C. for 60 minutes in a 96-well microtiter plate. For each of the tested compounds a full dose response 1·10^−6M to 1·10^−10M has been performed. IRESSA® and Tarceva™ (erlotinib) were used as reference compounds. The 100 μl reaction volume contains 54.5 mM TrisHCl pH 8.0, 10 mM MgCl2, 100 μM Na3VO4, 5.0 μM unlabeled ATP, 1 mM DTT, 0.009% BSA, 0.8 μCi ^33P-ATP, 0.35 μg/well poly(GT)biotin and 0.5 μg EGFR-kinase domain/well. The reaction is stopped by adding to each well 100 μl of the streptavidin beads (10 mg/ml in PBS+100 mM EDTA+100 μM ATP). The plates are than shaked at 300 rpm for 30 min to allow binding of the biotinylated substrate to the streptavidin coated beads. Than the beads are allowed to settle at the bottom of the plate for 30 minutes. The microtiterplates are centrifuges at 800 rpm for 10 minutes and the amount of phosphorylated (^33P) Poly(GT)biotin is determined by counting (30 sec/well) in a microtiterplate scintillation counter.
Target sequence in this assay (P00533 712-979 limits assumed): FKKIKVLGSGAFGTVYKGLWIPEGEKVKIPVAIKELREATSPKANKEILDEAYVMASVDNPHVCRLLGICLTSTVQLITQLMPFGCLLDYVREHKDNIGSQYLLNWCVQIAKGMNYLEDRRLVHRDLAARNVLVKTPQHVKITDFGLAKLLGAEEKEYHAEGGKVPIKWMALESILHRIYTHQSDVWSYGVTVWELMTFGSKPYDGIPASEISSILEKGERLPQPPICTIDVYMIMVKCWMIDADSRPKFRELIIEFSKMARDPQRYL

EGFR [3] = target: T1, EGFR; experiment: In vitro inhibition of EGFR, Flash Plate or glass-fiber filter technology (C2); format: biochemical; parameters: 0.5 μg EGFR-kinase domain/well; details: EGFR-kinase domain, 5.0 μM unlabeled ATP, read-out: Kinase activity.(C2): pIC50 (converted)
Method in brief: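 EGFR kinase domain (0.5 μg/well) phosphorylated poly(GT) with 5.0 μM ATP plus AT^33P, dose response 1·10^−6 to 1·10^−10 M. Flash Plate: biotin-poly(GT), Tris pH 8.0, 30° C, 60 min, scintillation counting. Filter: Tris pH 7.5 with MnCl2, 25° C, 10 min, 33P counted on glass-fiber filter by phosphorimaging.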
Target sequence in this assay (P00533 712-979 limits assumed): as above

Row | Compound | IC50 (SKOV3 cells) | IC50 (EGFR [1]) | IC50 (A431 cells) | IC50 (EGFR [2]) | IC50 (EGFR [3]) | melting point
1 | COc1cc2ncnc3c2cc1OC(=O)CCCCCOc1c(C)cccc1N3 [Compound 1, 4,6-ethanediylidene-19H-pyrimido[4,5-b][6,13,1]benzodioxaazacyclo-pentadecin-8(9H)-one, 10,11,12,13-tetrahydro-20-methoxy-15-methyl-] | > 2000 nM | > 1000 nM | > 1000 nM | > 100 nM | > 10000 nM | 
2 | COc1cc2ncnc3c2cc1OCCCCCCOc1c(Cl)cccc1N3 [Compound 2, 4,6-ethanediylidene-19H-pyrimido[4,5-b][6,13,1]benzodioxaazacyclo-pentadecine, 15-chloro-8,9,10,11,12,13-hexahydro-20-methoxy-] | > 2000 nM | > 1000 nM | > 1000 nM | > 100 nM | 100 nM | 255.5 to 260.2 °C
3 | COc1cc2ncnc3c2cc1OCCCCCCOc1ccc(Cl)cc1N3 [Compound 3, 4,6-ethanediylidene-19H-pyrimido[4,5-b][6,13,1]benzodioxaazacyclo-pentadecine, 17-chloro-8,9,10,11,12,13-hexahydro-20-methoxy-] | 1350 nM | > 1000 nM | > 1000 nM | 3.61 nM | 15.8 nM | 241.5 to 242.7 °C
4 | COc1cc2ncnc3c2cc1OCCCCCOc1ccc(Cl)cc1N3 [Compound 4, 4,6-ethanediylidene-8H,18H-pyrimido[4,5-b][6,12,1]benzo-dioxaazacyclotetradecine, 16-chloro-9,10,11,12-tetrahydro-19-methoxy-] | 2880 nM | 556 nM |  | 32.6 nM | 50.1 nM | 213.5 to 221.2 °C
5 | COc1cc2ncnc3c2cc1OCCCCCCOc1ccccc1N3 [Compound 5, 4,6-ethanediylidene-19H-pyrimido[4,5-b][6,13,1]benzodioxaazacyclo-pentadecine, 8,9,10,11,12,13-hexahydro-20-methoxy-] | 4790 nM | > 1000 nM |  | 81.1 nM | 398 nM | 243.3 to 251.2 °C
6 | COc1cc2ncnc3c2cc1OCCCCCCOc1ccc(Br)cc1N3 [Compound 6, 4,6-ethanediylidene-19H-pyrimido[4,5-b][6,13,1]benzodioxaazacyclo-pentadecine, 17-bromo-8,9,10,11,12,13-hexahydro-20-methoxy-] | 1820 nM | 359 nM |  | 4.4 nM | 25.1 nM | 228.6 to 234.8 °C
7 | COc1cc2ncnc3c2cc1OCCCCCCCOc1ccc(Cl)cc1N3 [Compound 7, 4,6-ethanediylidene-8H,20H-pyrimido[4,5-b][6,14,1]benzo-dioxaazacyclohexadecine, 18-chloro-9,10,11,12,13,14-hexahydro-21-methoxy-] | > 10000 nM | > 1000 nM |  | 6.64 nM | 79.4 nM | 240.6 to 243.7 °C
8 | COc1cc2ncnc3c2cc1OCCCCCCCCOc1ccc(Cl)cc1N3 [Compound 8, 4,6-ethanediylidene-21H-pyrimido[4,5-b][6,15,1]benzodioxaazacyclo-heptadecine, 19-chloro-8,9,10,11,12,13,14,15-octahydro-22-methoxy-] | > 10000 nM | 329 nM |  | 3.97 nM | 31.6 nM | 147.7 to 151.1 °C
9 | COc1cc2ncnc3c2cc1OCCCCCCCCCOc1ccc(Cl)cc1N3 [Compound 9, 4,6-ethanediylidene-8H,22H-pyrimido[4,5-b][6,16,1]benzo-dioxaazacyclooctadecine, 20-chloro-9,10,11,12,13,14,15,16-octahydro-23-methoxy-] |  | > 1000 nM |  | 6.79 nM | 39.8 nM | 177.4 to 183.8 °C
10 | COc1cc2ncnc3c2cc1OCCCCCCOc1ccc(C#N)cc1N3 [Compound 13, 4,6-ethanediylidene-19H-pyrimido[4,5-b][6,13,1]benzodioxaazacyclo-pentadecine-17-carbonitrile, 8,9,10,11,12,13-hexahydro-20-methoxy-] | > 10000 nM | > 1000 nM | > 3160 nM |  | 316 nM | 
11 | COc1cc2ncnc3c2cc1OCCCCCCOc1ccc(C(=O)N2CCOCC2)cc1N3 [Compound 14, morpholine, 4-[(8,9,10,11,12,13-hexahydro-20-methoxy-4,6-ethane-diylidene-19H-pyrimido[4,5-b][6,13,1]benzodioxaazacyclopentadecin-17-yl)carbonyl]-] | > 10000 nM | > 1000 nM | > 3160 nM |  | > 10000 nM | 
12 | Brc1ccc2c(c1)Nc1ncnc3cc(OCCCN4CCOCC4)c(cc13)OCCCCCCO2 [Compound 17, 4,6-ethanediylidene-19H-pyrimido[4,5-b][6,13,1]benzodioxaazacyclo-pentadecine, 17-bromo-8,9,10,11,12,13-hexahydro-20-[3-(4-morpholinyl)propoxy]-acetic acid] | 8320 nM | 269 nM | 2510 nM |  | 39.8 nM | 
13 | COc1cc2ncnc3c2cc1OCCCCCCCc1ccc(Br)cc1N3 [Compound 21, 4,6-ethanediylidenepyrimido[4,5-b][6,1]benzoxaazacyclopentadecine, 17-bromo-8,9,10,11,12,13,14,19-octahydro-20-methoxy-] | 813 nM | 158 nM | > 3160 nM |  | 10 nM | 
14 | COc1cc2ncnc3c2cc1OCCCCCN(C)Cc1ccc(Br)cc1N3 [Compound 22, 4,6-ethanediylidenepyrimido[4,5-b][6,1,12]benzoxadiazacyclo-pentadecine, 17-bromo-8,9,10,11,12,13,14,19-octahydro-20-methoxy-13-methyl-] | 257 nM | 38.4 nM | 1580 nM |  | 15.8 nM | 
